What was measured:
PC3 prostate cells = experiment: PC3 prostate cell proliferation; format: cell-based; conditions: different concentrations; 24, 48, 72 hours
Description: PC3 prostate cells were cultured for up to three days in the presence of different concentrations of cromolyn, and cell proliferation was analyzed at 24, 48, and 72 hours. *, P<0.05.

MPan-96 cells = experiment: MPanc-96 cell invasiveness; format: cell-based, Human
SW480 colon cells = experiment: SW480 colon cell proliferation; format: cell-based; conditions: cromolyn 100 μM, up to three days
Description: SW480 colon cells were cultured for up to three days in the presence of cromolyn (100 μM), and cell proliferation was analyzed. *, P<0.05.

NFκB promoter activity = experiment: NFκB luciferase reporter assay in Panc-1 cells; format: cell-based
Description: FIGS. 3A, 3B, and 3C show the effect of cromolyn on S100P stimulated NFκB promoter activity in pancreatic cancer cells in vitro and in vivo. Panc-1 and BxPC-3 pancreatic cancer cell lines stably expressing an NFκB luciferase reporter were examined for the effects of S100P and cromolyn. […] Means and 95% confidence intervals are shown for three independent experiments performed in triplicate. *, P=0.022, †, P<0.001, and P<0.001 versus control; #, P=0.005 versus 100 nM S100P alone. […] Means and 95% confidence intervals are shown for three independent experiments performed in triplicate. *, P=0.003, †, P<0.001 versus control. […] After 1 week, tumor growth was assessed and NFκB activity was analyzed using an IVIS system (Xenogen Corp., Alameda, Calif.) after injecting mice with D-luciferin (150 mg per kg body weight) (0 time point). The mice were treated with cromolyn (5 mg per kg body weight by intraperitoneal injection), and NFκB luciferase activity was analyzed again at 24 and 48 hours. *, P=0.005 versus control. Means and 95% confidence intervals are shown for two independent experiments (n=4 mice per group). Two-tailed two-sample (unpaired for in vitro and paired for in vivo studies) Student's t-tests were used to determine P values.
To study pancreatic cancer cell NFκB activity, a lentivirus NFκB luciferase reporter gene construct was developed. The NFκB luciferase reporter gene was excised and isolated from the pNF-κB-Luc Vector (Clonetec, Mountain View, Calif.) and cloned into the lentiviral vector FG9 (Gift from Dr. Xiao-Feng Qin, Dept. of Immunology, M.D. Anderson Cancer Center replacing the CMV/LTR and UBiC promoters, to form Lenti-NFκB-Luc. Lentiviral NFκB vector were co-transfected with packaging constructs pRSVREV, pMDLg/pRRE, and the VSV-G expression plasmid pHCMVG, and lentivirus was produced in 293T cells by the calcium transfection method, as previously described in Qin, et al., Inhibiting HIV-1 infection in human T cells by lentiviral-mediated delivery of small interfering RNA against CCR5; Proc. Natl. Acad. Sci. U.S.A. 2003 Jan. 7; 100(1):183-8. […] Functional validation of NFκB reporter activity was conducted in vitro using TNF-α (20 ng/mL, Sigma, St. Louis, Mo.) as a positive control.
BxPC-3 and Panc-1 cells stably expressing a Lenti-NFkB-luc reporter construct were treated with S100P, cromolyn, or the combination for 5 hours. D-luciferin (150 μg/mL) was added to the cells, and luciferase activity was measured using an IVIS bioluminescence system (Xenogen Co. Alameda, Calif.). Each experiment was conducted three times in triplicate.

[1] = S100P 100 nM + cromolyn 100 μM, 5 hours

## O=C(O)c1cc(=O)c2c(OCC(O)COc3cccc4oc(C(=O)O)cc(=O)c34)cccc2o1 [cromolyn, disodium 1,3-bis[(2′-carboxylatochromon-5′-yl)oxy]-2-hydroxypropane]
PC3 prostate cells
  growth of PC3 cells: reduced growth
MPan-96 cells
  basal cell invasiveness: inhibited
SW480 colon cells
  growth of SW480 cells: reduced growth
NFκB promoter activity; [1]
  NFκB promoter activity, difference versus 100 nM S100P alone: 7100 photons/sec
  NFκB promoter activity, mean: 7360 photons/sec
NFκB promoter activity; cromolyn alone
  basal NFκB activity: no effect
